The values that follow come from patent US20170027902A1, “Use of a Composition Comprising a Flavonol, A Flavonoid, and a Fatty Acid in the Treatment of Oxidative Injuries Due to Mitochondrial Dysfunction” (priority 2014, published 2017).

The series has as its system cortical neurons. As to the kind of experiment: OGD, viable neurons counted by FACS (Annexin V / 7AAD). The note with it: 0.03 and 0.1 μg/ml (0.1 and 0.3 μM); 24 hrs pretreatment; 90 min OGD (vehicle approximately 45%). The series is classed as cell-based, mouse. As to the method:
Embryonic day 16 timed pregnant CD1 out-bred mice were obtained from Charles River Laboratories (Charles River; QC, Canada). Primary cortical neuron cultures were prepared from cerebral cortices of wild type (WT) CD1 mouse embryos as described previously, with the following modifications. Pregnant CD1 females were heavily anaesthetized with isoflurane vapor (Benson Medical Industries, Inc., Markham, ON) before being euthanized by decapitation. The embryonic day 16 (E16) fetuses were immediately removed from the sacrificed pregnant females by cesarean section and placed in ice-cold Hank's Balanced Salt Solution (HBSS) (GIBCO; Invitrogen, Amarillo, Calif.). The meninges were removed from the brains and cortices were isolated under a dissecting microscope. […] The trypsin and inhibitor solutions were discarded and each cell pellet was suspended in 1 ml of cortical neuron plating medium (Neurobasal medium (Invitrogen, Amarillo, Calif.) with 10% fetal bovine serum (GIBCO; Invitrogen; Amarillo, Calif.), 2% B27 supplement, 1 mM L-glutamine, and 1% Gentamycin (Invitrogen; Amarillo, Calif.), triturated 10 times and counted using trypan blue exclusion and a hemocytometer. Cortical neurons were plated in 96-well plates (Corning; Lowell, Mass.) that were pre-coated with poly-D-lysine (PDL; Sigma-Aldrich; Oakville, ON) according to the procedure described by the manufacturer. […]
A general note: Flow cytometry measures light scatter and fluorescence of single cells or particles in a stream.

As for `Oc1cc(O)c2c(c1)O[C@H](c1ccc(O)c(O)c1)[C@H](O)C2` [E, (2R,3R)-2-(3,4-dihydroxyphenyl)-3,4-dihydro-2H-chromene-3,5,7-triol], the “neuronal survival (viable neurons relative to control, no OGD)” value worked out at 55%.
Turning to `O=c1c(O)c(-c2ccc(O)c(O)c2)oc2cc(O)cc(O)c12` [Q], the “neuronal survival (viable neurons relative to control, no OGD)” value came out at 55%.
